Calls of active or inactive are those of the source. No cut-off for these calls is given here.
Experiments:
Avena sativa [1] = assay: Auxin activity in Avena sativa cv. Victory-1 assessed as coleoptile elongation; format: functional, organism-based
Avena sativa [2] = assay: Antiauxin activity in Avena sativa cv. Victory-1 assessed as growth inhibition at 1 x 10^-4 M; format: functional, organism-based
Avena sativa [3] = assay: Auxin activity in Avena sativa cv. Victory-1 assessed as coleoptile elongation at 3 x 10^-6 M; format: functional, organism-based
Avena sativa [4] = assay: Auxin activity in Avena sativa cv. Victory-1 assessed as increase of auxin-induced growth at 5.6 x 10^-5 M; format: functional, organism-based
Avena sativa [5] = assay: Antiauxin activity in Avena sativa cv. Victory-1 assessed as auxin-induced growth inhibition at 3 x 10^-5 M; format: functional, organism-based
Avena sativa [6] = assay: Antiauxin activity in Avena sativa cv. Victory-1 assessed as auxin-induced growth inhibition at 10^-5 to 10^-4 M; format: functional, organism-based
Avena sativa [7] = assay: Auxin activity in Avena sativa cv. Victory-1 assessed as increase of auxin-induced growth at 10^-5 M; format: functional
Avena sativa [8] = assay: Antiauxin activity in Avena sativa cv. Victory-1 assessed as growth inhibition; format: functional, organism-based

Row | SMILES | Activity (Avena sativa [1]) | growth inhibition (GI) (Avena sativa [2]) | Activity (Avena sativa [3]) | growth inhibition (GI) (Avena sativa [8]) | also measured
1 | CC(C)(C(=O)O)c1c[nH]c2c(Cl)cc(Cl)cc12 | inactive | – | – | – | –
2 | CC(C(=O)O)c1c[nH]c2c(F)cc(F)cc12 (centres undefined) | Active | Active | Active | – | –
3 | O=C(O)Cc1c[nH]c2ccccc12 | Active | – | – | – | Activity (Avena sativa [4]): inactive; growth inhibition (GI) (Avena sativa [5]): Active
4 | CC(C)(C(=O)O)c1c[nH]c2c(F)cc(F)cc12 | Active | Active | Active | – | growth inhibition (GI) (Avena sativa [6]): Active; Activity (Avena sativa [7]): 80%
5 | CC(C)(C(=O)O)c1c[nH]c2ccccc12 | – | – | – | inactive | –
6 | O=C(O)Cc1c[nH]c2c(F)cc(F)cc12 | – | – | – | Active | –

— ChEMBL document CHEMBL3044984, “Synthesis of 2-(5, 7-Difluoro-3-indolyl)-propionic Acid (5, 7-F2-IPA) and 2-(5, 7-Difluoro-3-indolyl)isobutyric Acid (5, 7-F2-IIBA) and Their Respective Auxin and Antiauxin Activities” (2001)
